# From patent publication US20240382483A1, “HETEROCYCLIC EGFR INHIBITORS FOR USE IN THE TREATMENT OF CANCER” (Blueprint Medicines Corporation, priority 2021, published 2024)
# Key:
# [1] = molecular target: T1, intracellular phosphorylation of EGFR in NCI-H1975 cell line that harbors the EGFR L858R T790M mutations (Homo sapiens, UniProt P00533, L858R/T790M); assay: NCI-H1975 pEGFR AlphaLISA assay; assay type: cell-based; conditions: NCI-H1975 cells (EGFR L858R T790M), p-EGFR (Tyr1068), 4-5 hours incubation; read-out: Ext pEGFR H1975 GMean IC50 (nM) Protocol: @Pharmaron AlphaLISA (Num)
# T1 construct: NCI-H1975 cell line that harbors the EGFR L858R T790M mutations (ATCC, CRL-5908); host or cells: NCI-H1975
# Experimental: On the next day, the test compounds and DMSO control were added into H1975 cell plate followed by incubation at 37C/5% CO2 for 4-5 hours. […] Then 5 μL of a donor bead mix was added to each well followed by overnight incubation at room temperature in dark. On the next day, the plate was read at a compatible plate reader to obtain pEGFR signal. Percent of pEGFR inhibition was plotted against log concentration of compounds to generate IC50 values.
# EGFR (L858R T790M C797S) = molecular target: T2, EGFR (L858R T790M C797S) (Homo sapiens, UniProt P00533, C797S/L858R/T790M); assay: Biochemical EGFR inhibition assay (Caliper mobility shift), EGFR LRTMCS; conditions: LRTMCS (PH) IC50 (nM) @ 1 mM ATP (Num), EGFR LRTMCS mutant
# T2 construct: purchased SignalChem E10-122VG
# In short: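 Each enzyme was allowed to phosphorylate 10–20% of its peptide at 25° C. before EDTA (35 mM) quench. Separated substrate and product peaks were measured by mobility shift, giving apparent IC50 values.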
# T2 sequence (P00533 25-1210 T790M/C797S/L858R): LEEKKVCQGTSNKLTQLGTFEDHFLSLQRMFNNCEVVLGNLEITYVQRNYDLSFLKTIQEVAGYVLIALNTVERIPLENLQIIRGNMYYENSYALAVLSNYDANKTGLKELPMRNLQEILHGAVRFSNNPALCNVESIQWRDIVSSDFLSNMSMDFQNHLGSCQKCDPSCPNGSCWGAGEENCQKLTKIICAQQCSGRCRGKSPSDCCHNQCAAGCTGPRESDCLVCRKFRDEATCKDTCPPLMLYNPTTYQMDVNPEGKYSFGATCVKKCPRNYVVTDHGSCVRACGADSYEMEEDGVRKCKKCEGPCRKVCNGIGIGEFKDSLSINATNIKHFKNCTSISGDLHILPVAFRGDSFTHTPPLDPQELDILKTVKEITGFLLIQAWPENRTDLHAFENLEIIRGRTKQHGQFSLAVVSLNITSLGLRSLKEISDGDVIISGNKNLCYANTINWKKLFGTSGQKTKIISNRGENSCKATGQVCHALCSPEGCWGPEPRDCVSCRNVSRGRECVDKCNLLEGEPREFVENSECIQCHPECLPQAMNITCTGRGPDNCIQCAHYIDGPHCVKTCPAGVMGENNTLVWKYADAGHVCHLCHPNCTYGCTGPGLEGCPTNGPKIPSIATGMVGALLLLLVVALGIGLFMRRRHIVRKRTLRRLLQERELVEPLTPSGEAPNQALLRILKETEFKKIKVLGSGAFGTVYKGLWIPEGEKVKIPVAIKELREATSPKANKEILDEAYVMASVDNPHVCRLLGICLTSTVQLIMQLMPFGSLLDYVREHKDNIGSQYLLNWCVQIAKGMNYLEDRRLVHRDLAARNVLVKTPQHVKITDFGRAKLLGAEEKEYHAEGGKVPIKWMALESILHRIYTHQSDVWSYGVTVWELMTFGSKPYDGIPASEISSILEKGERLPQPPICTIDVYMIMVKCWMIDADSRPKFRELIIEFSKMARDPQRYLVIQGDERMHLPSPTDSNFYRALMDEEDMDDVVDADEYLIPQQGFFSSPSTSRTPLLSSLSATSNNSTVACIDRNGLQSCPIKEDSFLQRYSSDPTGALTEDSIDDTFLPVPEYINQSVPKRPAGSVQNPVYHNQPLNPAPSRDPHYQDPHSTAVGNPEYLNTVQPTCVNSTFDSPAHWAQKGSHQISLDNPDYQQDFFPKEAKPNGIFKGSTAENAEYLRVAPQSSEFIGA
# T1 sequence (P00533 25-1210 T790M/L858R): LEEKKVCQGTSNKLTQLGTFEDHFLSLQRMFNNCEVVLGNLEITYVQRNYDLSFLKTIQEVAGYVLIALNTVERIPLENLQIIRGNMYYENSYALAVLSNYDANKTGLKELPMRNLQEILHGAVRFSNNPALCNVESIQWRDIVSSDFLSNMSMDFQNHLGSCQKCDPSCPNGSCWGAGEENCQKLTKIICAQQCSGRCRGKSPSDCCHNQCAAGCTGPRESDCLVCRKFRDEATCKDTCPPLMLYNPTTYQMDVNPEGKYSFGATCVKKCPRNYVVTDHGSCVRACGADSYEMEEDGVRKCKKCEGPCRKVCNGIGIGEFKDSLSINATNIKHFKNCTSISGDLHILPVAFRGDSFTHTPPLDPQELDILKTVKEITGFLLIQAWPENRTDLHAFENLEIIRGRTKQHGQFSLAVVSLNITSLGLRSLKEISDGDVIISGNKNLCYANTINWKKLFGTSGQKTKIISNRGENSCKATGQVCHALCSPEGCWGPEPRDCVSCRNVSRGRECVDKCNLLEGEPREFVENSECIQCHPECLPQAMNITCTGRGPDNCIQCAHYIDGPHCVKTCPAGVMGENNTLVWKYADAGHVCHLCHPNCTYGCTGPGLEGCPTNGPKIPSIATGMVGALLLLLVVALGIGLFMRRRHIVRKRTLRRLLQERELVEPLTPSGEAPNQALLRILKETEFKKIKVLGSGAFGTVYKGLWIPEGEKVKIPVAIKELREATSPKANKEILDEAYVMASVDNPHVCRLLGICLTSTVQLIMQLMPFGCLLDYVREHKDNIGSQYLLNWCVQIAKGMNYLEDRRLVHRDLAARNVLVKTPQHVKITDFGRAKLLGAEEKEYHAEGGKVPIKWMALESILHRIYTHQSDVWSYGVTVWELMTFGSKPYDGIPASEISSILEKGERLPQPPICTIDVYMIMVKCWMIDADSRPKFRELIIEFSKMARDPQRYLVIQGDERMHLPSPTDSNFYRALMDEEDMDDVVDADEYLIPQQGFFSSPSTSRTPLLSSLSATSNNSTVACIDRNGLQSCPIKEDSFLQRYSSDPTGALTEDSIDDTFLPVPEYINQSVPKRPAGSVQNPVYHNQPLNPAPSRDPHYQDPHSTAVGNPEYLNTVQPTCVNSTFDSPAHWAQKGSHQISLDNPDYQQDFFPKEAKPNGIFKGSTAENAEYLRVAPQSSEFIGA
Compound,IC50 [1] [nM],IC50 (EGFR (L858R T790M C797S)) [nM]
"CC(C)c1cnc(N2CC(n3cncn3)C2)c2cnc(Nc3ccnc(N4CC[C@@H](O)[C@@](C)(F)C4)n3)cc12 [Example 88, (3S,4R)-1-(4-((8-(3-(1H-1,2,4-triazol-1-yl)azetidin-1-yl)-5-isopropyl-2,7-naphthyridin-3-yl)amino)pyrimidin-2-yl)-3-fluoro-3-methylpiperidin-4-ol]",30 to 50,< 15
"[2H]C([2H])([2H])O[C@@H]1CCN(c2nccc(Nc3cc4c(C(C)C)cnc(N5C[C@H](O)[C@H]5C)c4cn3)n2)C[C@@H]1F [Example 139, (2R,3S)-1-(6-((2-((3S,4R)-3-fluoro-4-(methoxy-d3)piperidin-1-yl)pyrimidin-4-yl)amino)-4-isopropyl-2,7-naphthyridin-1-yl)-2-methylazetidin-3-ol]",< 10,< 15
"CC(C)c1cnc(N2C[C@H](O)[C@H]2C)c2cnc(Nc3ccnc(N4CC[C@](C)(O)[C@](C)(F)C4)n3)cc12 (single isomer, unassigned) [Example 170, (3R,4S)-3-fluoro-1-(4-((8-((2R,3S)-3-hydroxy-2-methylazetidin-1-yl)-5-isopropyl-2,7-naphthyridin-3-yl)amino)pyrimidin-2-yl)-3,4-dimethylpiperidin-4-ol or (3S,4R)-3-fluoro-1-(4-((8-((2R,3S)-3-hydroxy-2-methylazetidin-1-yl)-5-isopropyl-2,7-naphthyridin-3-yl)amino)pyrimidin-2-yl)-3,4-dimethylpiperidin-4-ol]",20 to 30,< 15
"CNCCO[C@@H]1CCN(c2nccc(Nc3cc4c(C(C)C)cnc(N5CC[C@H]5C)c4cn3)n2)C[C@@H]1F [Example 201, N-(2-((3S,4R)-3-fluoro-4-(2-(methylamino)ethoxy)piperidin-1-yl)pyrimidin-4-yl)-5-isopropyl-8-((R)-2-methylazetidin-1-yl)-2,7-naphthyridin-3-amine]",10 to 20,< 15
"CC(C)c1cnc(-c2cnn(C)c2)c2cnc(Nc3ccnc(N4CC[C@@H](O)[C@@](C)(F)C4)n3)cc12 [Example 9, (3S,4R)-3-fluoro-1-(4-((5-isopropyl-8-(1-methyl-1H-pyrazol-4-yl)-2,7-naphthyridin-3-yl)amino)pyrimidin-2-yl)-3-methylpiperidin-4-ol]",30 to 50,< 15
"C[C@H](CO)c1cnc(N2CC[C@H]2C)c2cnc(Nc3ccnc(N4C[C@@H](F)[C@@H](O)C(C)(C)C4)n3)cc12 (single isomer, unassigned) [Example 187]",> 50,30 to 100
"[2H]C([2H])([2H])O[C@H]1CN(c2ncc(C(C)C)c3cc(Nc4ccnc(N5CC[C@@H](O)[C@@](C)(F)C5)n4)ncc23)[C@@H]1C [Example 108, (3S,4R)-3-fluoro-1-(4-((5-isopropyl-8-((2R,3S)-3-(methoxy-d3)-2-methylazetidin-1-yl)-2,7-naphthyridin-3-yl)amino)pyrimidin-2-yl)-3-methylpiperidin-4-ol]",10 to 20,< 15
"COC(=O)N1CC2(CCN2c2ncc(C(C)C)c3cc(Nc4ccnc(N5CC[C@@H](O)[C@@](C)(F)C5)n4)ncc23)C1 [Example 82, methyl 1-(6-((2-((3S,4R)-3-fluoro-4-hydroxy-3-methylpiperidin-1-yl)pyrimidin-4-yl)amino)-4-isopropyl-2,7-naphthyridin-1-yl)-1,6-diazaspiro[3.3]heptane-6-carboxylate]",30 to 50,15 to 20
"CC(C)c1cnc(-c2ncn(C)n2)c2cnc(Nc3ccnc(N4CC[C@@H](O)[C@@](C)(F)C4)n3)cc12 [Example 15, (3S,4R)-3-fluoro-1-(4-((5-isopropyl-8-(1-methyl-1H-1,2,4-triazol-3-yl)-2,7-naphthyridin-3-yl)amino)pyrimidin-2-yl)-3-methylpiperidin-4-ol]",> 50,< 15

# More lines, now with the values ahead:
IC50 [1] [nM],IC50 (EGFR (L858R T790M C797S)) [nM],Compound
10 to 20,< 15,"CC(C)c1cnc(N2CC[C@@H]2C)c2cnc(Nc3ccnc(N4CC[C@@H](O)[C@@H](F)C4)n3)cc12 (single isomer, unassigned) [Example 159, (3S,4R)-3-fluoro-1-(4-((5-isopropyl-8-((S)-2-methylazetidin-1-yl)-2,7-naphthyridin-3-yl)amino)pyrimidin-2-yl)piperidin-4-ol or (3S,4R)-3-fluoro-1-(4-((5-isopropyl-8-((R)-2-methylazetidin-1-yl)-2,7-naphthyridin-3-yl)amino)pyrimidin-2-yl)piperidin-4-ol]"
10 to 20,20 to 30,"CC(C)c1cnc(N2C[C@H](OC(F)F)[C@H]2C)c2cnc(Nc3ccnc(N4CC[C@@H](O)[C@@](C)(F)C4)n3)cc12 [Example 109, (3S,4R)-1-(4-((8-((2R,3S)-3-(difluoromethoxy)-2-methylazetidin-1-yl)-5-isopropyl-2,7-naphthyridin-3-yl)amino)pyrimidin-2-yl)-3-fluoro-3-methylpiperidin-4-ol]"
20 to 30,< 15,"C[C@H](c1cnc(N2CC[C@H]2C)c2cnc(Nc3ccnc(N4CC[C@@H](O)[C@@](C)(F)C4)n3)cc12)C1COC1 (single isomer, unassigned) [Example 176, (3S,4R)-3-fluoro-3-methyl-1-(4-((8-((R)-2-methylazetidin-1-yl)-5-((S)-1-(oxetan-3-yl)ethyl)-2,7-naphthyridin-3-yl)amino)pyrimidin-2-yl)piperidin-4-ol or (3S,4R)-3-fluoro-3-methyl-1-(4-((8-((R)-2-methylazetidin-1-yl)-5-((R)-1-(oxetan-3-yl)ethyl)-2,7-naphthyridin-3-yl)amino)pyrimidin-2-yl)piperidin-4-ol]"
> 50,15 to 20,"CC(C)c1cnc(N2CC(O)C2)c2cnc(Nc3ccnc(N4CCC5(CCO5)CC4)n3)cc12 [Example 117, 1-(6-((2-(1-oxa-7-azaspiro[3.5]nonan-7-yl)pyrimidin-4-yl)amino)-4-isopropyl-2,7-naphthyridin-1-yl)azetidin-3-ol]"
30 to 50,30 to 100,"CC(C)c1cnc(N2CC[C@]3(C2)CC3(F)F)c2cnc(Nc3ccnc(N4CC[C@@H](O)[C@@](C)(F)C4)n3)cc12 (single isomer, unassigned) [Example 214, (3S,4R)-1-(4-((8-((R)-1,1-difluoro-5-azaspiro[2.4]heptan-5-yl)-5-isopropyl-2,7-naphthyridin-3-yl)amino)pyrimidin-2-yl)-3-fluoro-3-methylpiperidin-4-ol or (3S,4R)-1-(4-((8-((S)-1,1-difluoro-5-azaspiro[2.4]heptan-5-yl)-5-isopropyl-2,7-naphthyridin-3-yl)amino)pyrimidin-2-yl)-3-fluoro-3-methylpiperidin-4-ol]"
< 10,< 15,"CO[C@H]1CCN(c2nccc(Nc3cc4c(C(C)C)cnc(N5CC[C@H]5C)c4cn3)n2)C[C@H]1OCCO (single isomer, unassigned) [Example 167, 2-(((3R,4S)-1-(4-((5-isopropyl-8-((R)-2-methylazetidin-1-yl)-2,7-naphthyridin-3-yl)amino)pyrimidin-2-yl)-4-methoxypiperidin-3-yl)oxy)ethan-1-ol or 2-(((3S,4R)-1-(4-((5-isopropyl-8-((R)-2-methylazetidin-1-yl)-2,7-naphthyridin-3-yl)amino)pyrimidin-2-yl)-4-methoxypiperidin-3-yl)oxy)ethan-1-ol]"
